From patent publication US12704459B2, “Methods, compositions, and kits for assay signal amplification” (MESO SCALE TECHNOLOGIES, LLC., priority 2021, dated 2026)

How the values were obtained:
[1] = system: anti-SULFO-TAG antibody clones; assay: Competition assay: ligands SM, Bpy or A against TAG compound binding; set-up: species or system mouse; conditions: 2 μM of ligand
Procedure: FIGS. 20A-20I show the results of exemplary competitive binding assays between the TAG compounds shown in FIG. 18A and the SM, Bpy, or A ligands shown in FIG. 18A, with the anti-SULFO-TAG antibody clones described in Example 4. The graphs show the remaining ECL signal after anti-SULFO-TAG antibodies were exposed to 2 μM of each ligand, then varying concentrations of each of the TAG compounds. Lower ECL signal is indicative of stronger binding affinity to a particular ligand. The three panels in the right-most column show ECL signals from exposing the anti-SULFO-TAG antibody clones to 10 nM of the TAG compounds alone (without ligands).
To further verify the role of ligands in antibody recognition, the antibodies were coated on MSD® 96-well Small Spot Streptavidin plates and first exposed to 2 μM of ligands SM, Bpy, or A, then exposed to different concentrations of the TAG compounds as a competition assay.

[2] = ECL generation of free TAG compounds spiked into ECL read buffer; assay type: physicochemical; conditions: free TAG compound in ECL read buffer, 96-well bare carbon plates
Procedure: An epitope recognition study was performed on the eleven anti-SULFO-TAG antibody clones described in Example 4. To study the epitope recognition of these antibody clones, four organometallic Ru^2+ compounds (“TAG compounds”) with varying numbers of sulfomethyl-bipyridine (“SM”) or bipyridine (“Bpy”) ligands as shown in FIG. 18A were prepared. The SULFO-TAG is denoted as Ru^+2(SM)2A1, which includes an acid ligand (“A”) in one of the Bpy groups and is more similar in structure with Bpy than SM. ECL generation from each TAG compound was verified by spiking the TAG compounds into ECL read buffer, and the ECL signal from each free TAG compound was measured on 96-well bare carbon plates. […] The Ru(Bpy)3 ECL signal, when normalized for concentration, would be 248,576 ECL units, similar to the other TAG compounds.

Molecule	ligand binding / competition with antibody binding to Ru^+2(SM)3 and SULFO-TAG [1]	ECL signal, normalized for concentration [2]
c1ccc(-c2ccccn2)nc1 [Bpy, bipyridine]	unable to significantly outcompete antibody binding	
[Ru+2].c1ccc(-c2ccccn2)nc1.c1ccc(-c2ccccn2)nc1.c1ccc(-c2ccccn2)nc1 [Ru(Bpy)3]		248,576 ECL units
sulfomethyl-bipyridine [SM]	strongest binding	
